In patent US12246012B2, “Method for treating nervous system injuries using boldine and derivatives thereof” (United States Government as Represented by the Department …, priority 2020, dated 2025):

Columns and labels:
[1] = tested on: neurite outgrowth marker GAP-43; test: Immunofluorescence staining of injured spinal cords; assay type: in vivo, mouse; conditions: injured spinal cord transverse sections, SCI mice at 14-dpi, vs vehicle
Procedure: Immunofluorescence staining was performed on injured spinal cords of vehicle and boldine treated SCI mice at 14-dpi. 30-micron transverse sections were used to evaluate differences in the labeling of the neurite outgrowth marker GAP-43.

[2] = tested on: CCL2 mRNA in LPS astrocytes; test: mRNA expression after LPS-induced inflammatory response in astrocytic primary cell cultures; assay type: cell-based; conditions: compared to vehicle-treated LPS astrocytes
Procedure: To model effects of boldine on release of chemokines and other mediators, changes in mRNA expression after lipopolysaccharide (LPS)-induced inflammatory responses were analyzed using astrocytic primary cell cultures.

CCL2 mRNA = test: Thalamus mRNA levels by qPCR after contusion SCI; assay type: in vivo, mouse; conditions: compared to vehicle-treated animals after contusion SCI; FIG. 3 (thalamus); N=3
Procedure: (§1) FIGS. 2A-D show plots of mRNA levels of Cx43 (2A), NLRP3 (2B), ASC (2C), and caspase-1 (2D) in the hippocampus of sham mice and those having contusion spinal cord injury (SCI) with and without boldine treatment. mRNA levels in the hippocampus were determined by qPCR at 13 dpi using tissues from mice that underwent laminectomy (Sham) or moderate (50 kdyne) contusion SCI. ((*p<0.05 by one-way ANOVA, N=3 per group).
(§2) FIGS. 3A-B are plots showing that boldine normalizes spinal cord injury (SCI)-induced elevation of IL-1B mRNA levels in the thalamus. mRNA levels were determined as described with reference to FIG. 2. (A) IL-1β; (B) CCL2. (*p<0.05 by ANOVA, N=3).
(§3) In rats, a spinal cord injury (SCI) can result in cognitive deficits that are associated with activation in brain regions linked to pain processing and cognition of microglia and astrocytes as well as associated with upregulation of a gene involved in inflammation (Wu et al. 2013; Wu et al. 2014). Such changes may drive central pain in neuropathic pain syndromes. To determine whether boldine mitigates such changes, mRNA expression of Cx43 and genes involved in inflammasome assembly and activity were determined in mouse brains. While SCI increased caspase-1 in the hippocampus. […] These studies indicate that boldine can reduce neuropathic pain following spinal cord injury (SCI) associated with reductions in brain and spinal cord of expression of pro-inflammatory cytokines and chemokines linked to pathological pain.

IL-1β mRNA = test: Thalamus mRNA levels by qPCR after contusion SCI; assay type: in vivo, mouse
Procedure: as §1, §2, §3

[3] = tested on: C57BL6 mice, moderate contusion spinal cord injury (SCI) at T9-T10; test: Basso Mouse Scale (BMS) open-field locomotor function after moderate contusion SCI; assay type: in vivo; conditions: oral, twice daily starting at 4-dpi; at 13 dpi; vs vehicle-treated SCI mice; N=5
Procedure: (§4) FIGS. 1A-C show the effects of boldine on locomotor functional recovery of C57BL6 mice after moderate spinal cord injury (SCI) at the interspace between thoracic vertebrae T9 and T10.
(§5) Function was determined by behavioral testing using both the Basso Mouse Scale (BMS) score (FIG. 1A) and the ladder rung walk test (LRWT) (FIG. 1B). While sham mice had normal BMS scores a few days after laminectomy, the BMS scores for contusion-SCI mice were much lower. […] (N=5; ANOVA *p<0.05 and **p<0.005 respectively).

caspase-1 mRNA = test: Hippocampus mRNA levels by qPCR after contusion SCI; assay type: in vivo, mouse; conditions: contusion SCI mice, 13 dpi, N=3
Procedure: as §1, §3

Ccl3 = test: Chemokine gene expression in spinal cord tissue of SCI mice; assay type: in vivo, mouse; conditions: C57B6 SCI animals at 14-dpi, vs vehicle; N=3, ANOVA p=0.085
Procedure: (§6) Additional studies were performed using tissues harvested from the mice for which behavioral testing data showing effects of boldine on Basso Mouse Scale and ladder rung walk test were collected. RNA-seq analysis was performed on spinal cord segments from SCI mice at 14-dpi treated with boldine or vehicle starting at 4-dpi (N=3 for each). Differentially expressed genes (DEGs) were clustered by their gene ontology (GO) and enrichment of GO terms was tested using a Fisher's exact test (GeneSCF v1.1-p2). Enriched DEGs were involved in pathways related to neutrophil activation and aggregation, inflammatory responses and astrocyte development.
(§7) Genes from a list of the top DEGs from the RNA-seq analysis were considered and tested for differences in gene expression of pro-inflammatory chemokines Ccl2 and Ccl3 between vehicle and boldine treated spinal cord tissues from C57B6 SCI animals at 14-dpi. Laminectomy-only (Sham) animals as were used as controls.

Ccl2 = test: as above; assay type: in vivo, mouse; conditions: C57B6 SCI animals at 14-dpi, vs vehicle; N=3, ANOVA p=0.091
Procedure: as §6, §7

[4] = tested on: C57BL6 mice, moderate contusion spinal cord injury (SCI) at T9-T10; test: Ladder rung walk test (LRWT) after moderate contusion SCI; assay type: in vivo, mouse; conditions: oral, twice daily starting at 4-dpi; at 13-dpi; vehicle-treated SCI mice 83%; N=5
Procedure: as §4, §5

COc1cc2c(cc1O)CC1c3c(cc(O)c(OC)c3-2)CCN1C (racemic) [boldine]
GAP43 immunofluorescence [1]: dramatically increased | reduction of mRNA levels of CCL2 [2]: 38% | reduction of mRNA levels of CCL2 (CCL2 mRNA): 47.2% | reduction of mRNA levels of IL-10 (IL-1β mRNA; compared to vehicle-treated animals after contusion SCI, FIG. 3 (thalamus), N=3): 65.5% | SCI-induced elevation of IL-1B mRNA levels in the thalamus (IL-1β mRNA; contusion SCI mice, qPCR, N=3 (FIG. 3 legend)): normalizes | BMS scores [3]: significantly increased | SCI-induced increase of caspase-1 mRNA in the hippocampus (caspase-1 mRNA): appeared to be corrected | Ccl3 gene expression in spinal cord tissue (Ccl3): apparent decrease which did not reach our threshold for significance | Ccl2 gene expression in spinal cord tissue (Ccl2): apparent decrease which did not reach our threshold for significance | LRWT incorrect steps [4]: 13%
